Experimental findings from patent publication US8653263B2 (Janssen Pharmaceutica, priority 2009, dated 2014) are described below.

The target of this assay is human orexin-2 receptor (Homo sapiens (Human), UniProt O43614). Nature of the assay: Human orexin 2 receptor radioligand binding ([3H]-EMPA competition). To be noted: HEK293 cells stably expressing human orexin-2 receptor; [3H]-EMPA 5 nM final; apparent Ki=IC50/(1+C/Kd), Kd=2 nM; read-out: OR 2 Ki.
human orexin-2 receptor, sequence (O43614 whole entry): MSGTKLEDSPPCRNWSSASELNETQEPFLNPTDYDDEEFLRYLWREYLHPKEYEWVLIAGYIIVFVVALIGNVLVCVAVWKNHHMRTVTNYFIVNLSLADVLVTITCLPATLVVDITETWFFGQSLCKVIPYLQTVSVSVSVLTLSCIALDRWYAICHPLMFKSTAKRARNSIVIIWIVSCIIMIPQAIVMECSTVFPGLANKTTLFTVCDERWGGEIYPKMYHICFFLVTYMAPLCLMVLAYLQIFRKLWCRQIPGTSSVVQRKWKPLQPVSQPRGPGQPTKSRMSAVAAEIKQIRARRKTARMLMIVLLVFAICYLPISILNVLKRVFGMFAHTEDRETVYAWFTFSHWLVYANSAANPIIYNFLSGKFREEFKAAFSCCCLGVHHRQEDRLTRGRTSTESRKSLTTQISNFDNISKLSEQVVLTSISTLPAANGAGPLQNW
Regarding `COc1cccc(N2CC3CN(C(=O)c4ccccc4-c4cccs4)CC3C2)n1` (centres unmarked) [Example 137, 2-(6-Methoxypyridin-2-yl)-5-[(2-thiophen-2-ylphenyl)carbonyl]octahydro pyrrolo[3,4-c]pyrrole], the Ki was 50 nM.
Take `COc1ccnc(N2CC3CN(C(=O)c4ccccc4-c4ccc(C)cc4)CC3C2)n1` (centres unmarked) [Example 54, 2-(4-Methoxypyrimidin-2-yl)-5-[(4′-methylbiphenyl-2-yl)carbonyl]octahydro-pyrrolo[3,4-c]pyrrole]: the Ki came to 769 nM.
In the case of `COc1ccc(C(=O)N2CC3CN(c4nc5ccccc5o4)CC3C2)c(OC)c1` (centres unmarked) [Example 183, (5-Benzooxazol-2-yl-hexahydro-pyrrolo[3,4-c]pyrrol-2-yl)-(2,4-dimethoxy-phenyl)-methanone], the Ki came out at 5000 nM.
The result for `Cc1cncc(N2CC3CN(C(=O)c4ccc(F)cc4-n4nccn4)CC3C2)n1` (centres unmarked) [Example 158, 2-{[4-Fluoro-2-(2H-1,2,3-triazol-2-yl)phenyl]carbonyl}-5-(6-methylpyrazin-2-yl)octahydropyrrolo[3,4-c]pyrrole] reads 55 nM.
The result for `COc1ccc(C(=O)N2CC3CN(c4nc(C)cc(C)n4)CC3C2)c(-c2ncccn2)c1` (centres unmarked) [Example 272, (5-(4,6-Dimethylpyrimidin-2-yl)hexahydropyrrolo[3,4-c]pyrrol-2(1H)-yl)(4-methoxy-2-(pyrimidin-2-yl)phenyl)methanone] reads 33 nM.
For `O=C(c1ccccc1-n1nccn1)N1CC2CN(c3nccc(-c4ccccc4)n3)CC2C1` (centres unmarked) [Example 131, 2-(4-Phenylpyrimidin-2-yl)-5-{[2-(2H-1,2,3-triazol-2-yl)phenyl]carbonyl}octahydro pyrrolo[3,4-c]pyrrole], the Ki is 75 nM.
`Cc1cnc(N2CC3CN(C(=O)c4ccccc4-c4ccccc4)CC3C2)c(C)n1` (centres unmarked) [Example 64, 2-(Biphenyl-2-ylcarbonyl)-5-(3,5-dimethylpyrazin-2-yl)octahydropyrrolo[3,4-c]pyrrole]: the Ki amounted to 579 nM.
The result for `COc1ccnc(N2CC3CN(C(=O)c4ccccc4-n4nccn4)CC3C2)n1` (centres unmarked) [Example 156, 2-(4-Methoxypyrimidin-2-yl)-5-{[2-(2H-1,2,3-triazol-2-yl)phenyl]carbonyl}octahydropyrrolo[3,4-c]pyrrole] reads 39 nM; that for `COc1cccc(OC)c1C(=O)N1CC2CN(c3cnc4ccccc4n3)CC2C1` (centres unmarked) [Example 165, 2-{5-[(2,6-Dimethoxyphenyl)carbonyl]hexahydropyrrolo[3,4-c]pyrrol-2(1H)-yl}quinoxaline], 852 nM; that for `COc1cccc(C(=O)N2CC3CN(c4nc(C)cc(C)n4)CC3C2)c1C` (centres unmarked) [Example 92, 2-(4,6-Dimethylpyrimidin-2-yl)-5-[(3-methoxy-2-methylphenyl)carbonyl]octahydro-pyrrolo[3,4-c]pyrrole], 766 nM.
Take `COc1ccnc(N2CC3CN(C(=O)c4ccccc4-c4ncn[nH]4)CC3C2)n1` (centres unmarked) [Example 154, 2-(4-Methoxypyrimidin-2-yl)-5-{[2-(1H-1,2,4-triazol-5-yl)phenyl]carbonyl}octahydropyrrolo[3,4-c]pyrrole]: the Ki was determined as 241 nM.
Take `Cc1cccc(-c2cc(F)ccc2C(=O)N2CC3CN(c4nc(C)cc(C)n4)CC3C2)n1` (centres unmarked) [Example 335, (5-(4,6-dimethylpyrimidin-2-yl)hexahydropyrrolo[3,4-c]pyrrol-2(1H)-yl)(4-fluoro-2-(6-methylpyridin-2-yl)phenyl)methanone]: the Ki was 59 nM.
The result for `Cc1cccc(-c2ccc(F)cc2C(=O)N2CC3CN(c4nc(C)cc(C)n4)CC3C2)n1` (centres unmarked) [Example 399, (5-(4,6-Dimethylpyrimidin-2-yl)hexahydropyrrolo[3,4-c]pyrrol-2(1H)-yl)(5-fluoro-2-(6-methylpyridin-2-yl)phenyl)methanone] reads 570 nM; that for `COc1cc(OC)nc(N2CC3CN(C(=O)c4cc(F)ccc4-n4nccn4)CC3C2)n1` (centres unmarked) [Example 72, 2-(4,6-Dimethoxypyrimidin-2-yl)-5-{[5-fluoro-2-(2H-1,2,3-triazol-2-yl)phenyl]carbonyl}octahydropyrrolo[3,4-c]pyrrole], 318 nM.
